23 molecules from ChEMBL document CHEMBL1155096, “A regiospecific synthesis of a series of 1-sulfonyl azepinoindoles as potent 5-HT6 ligands” (Bioorg Med Chem Lett, 2008) can be followed below.

In experiment [1] the target is T1, 5-hydroxytryptamine receptor 6 (Homo sapiens, UniProt P50406). Description: Displacement of [3H]-LSD from cloned human 5HT6 receptor expressed in HeLa cells. It is filed as cell-based. In general terms: In a radioligand displacement assay an active substance lowers the binding of a labelled ligand.
Experiment [2] deals with T1, 5-hydroxytryptamine receptor 6. Description: Antagonist activity at cloned human 5HT6 receptor expressed in HeLa cells assessed as production of cAMP. It is filed as functional, cell-based.
Experiment [3] concerns the target T2, 5-hydroxytryptamine receptor 2C (Homo sapiens, UniProt P28335).
T2 sequence (P28335 whole entry): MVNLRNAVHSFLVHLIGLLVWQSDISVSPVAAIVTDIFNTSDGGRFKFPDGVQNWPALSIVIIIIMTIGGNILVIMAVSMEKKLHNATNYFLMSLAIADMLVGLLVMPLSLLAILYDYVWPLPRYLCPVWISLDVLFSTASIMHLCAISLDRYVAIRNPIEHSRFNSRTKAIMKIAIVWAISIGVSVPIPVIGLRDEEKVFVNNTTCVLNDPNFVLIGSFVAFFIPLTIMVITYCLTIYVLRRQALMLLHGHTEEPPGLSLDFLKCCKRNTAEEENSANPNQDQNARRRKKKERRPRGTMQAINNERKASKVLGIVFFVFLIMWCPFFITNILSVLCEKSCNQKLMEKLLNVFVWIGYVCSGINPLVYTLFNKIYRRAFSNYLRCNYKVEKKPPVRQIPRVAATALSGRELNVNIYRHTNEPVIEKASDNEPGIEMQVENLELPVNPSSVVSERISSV
Description: Inhibition of 5HT2C.

SMILES strings stand for the structures. Calls of active or inactive are those of the source. The calls are words filed in the database; no cut-off is given here.

T1 sequence (P50406 whole entry): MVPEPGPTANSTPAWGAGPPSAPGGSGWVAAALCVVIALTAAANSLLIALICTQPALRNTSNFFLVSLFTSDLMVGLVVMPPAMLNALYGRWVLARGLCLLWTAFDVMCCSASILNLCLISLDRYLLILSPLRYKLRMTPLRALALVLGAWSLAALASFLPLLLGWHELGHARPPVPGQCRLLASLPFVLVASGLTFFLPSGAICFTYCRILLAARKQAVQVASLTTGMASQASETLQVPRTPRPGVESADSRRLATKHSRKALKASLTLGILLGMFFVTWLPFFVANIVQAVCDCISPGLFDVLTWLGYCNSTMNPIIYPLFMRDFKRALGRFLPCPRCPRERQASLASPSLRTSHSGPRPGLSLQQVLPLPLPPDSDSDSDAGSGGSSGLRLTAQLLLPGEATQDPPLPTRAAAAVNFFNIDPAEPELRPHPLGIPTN

As to `O=S(=O)(c1cccc(Cl)c1)n1c2c(c3ccccc31)CCNCC2`, the affinity in experiment [1], expressed as Ki, was 41 nM. For the same molecule, the result in experiment [2] was Active.

For `O=S(=O)(c1ccccc1Cl)n1c2c(c3ccccc31)CCNCC2`, in experiment [1], the Ki – broadly, a dissociation constant, usually derived from enzyme kinetics or from competition with a known ligand – came to 19 nM. Also, the outcome in experiment [2] was Active.

In experiment [1], `O=S(=O)(c1ccc(C(F)(F)F)cc1)n1c2c(c3ccccc31)CCNCC2` gave a Ki of 46 nM. In experiment [2], the result was Active.

Molecule `O=S(=O)(c1ccccc1)n1c2c(c3ccccc31)CCNCC2` registered a Ki in experiment [1] of 193 nM. Also, in experiment [2], the outcome was Active.

`O=S(=O)(c1cccc(F)c1)n1c2c(c3ccccc31)CCNCC2`: in experiment [1], the Ki was 33 nM. The result in experiment [2] was Active.

Take `COc1cccc(S(=O)(=O)n2c3c(c4ccccc42)CCN(Cc2ccccc2)CC3)c1`: the Ki in experiment [1] is 319 nM. The result in experiment [2] was Active.

In turn, `COc1cccc(S(=O)(=O)n2c3c(c4ccccc42)CCN(C)CC3)c1` registered a Ki in experiment [1] of 19 nM. Moreover, the outcome in experiment [2] was Active.

`O=S(=O)(c1ccc(Cl)cc1)n1c2c(c3ccccc31)CCNCC2` registered a Ki in experiment [1] of 18 nM. In experiment [2], the result was Active.

On to `Cc1cccc(S(=O)(=O)n2c3c(c4ccccc42)CCNCC3)c1`, for which the Ki in experiment [1] worked out at 68 nM. The result in experiment [2] was Active.

For `O=S(=O)(c1ccc(F)cc1)n1c2c(c3ccccc31)CCNCC2`, the Ki in experiment [1] was determined as 23 nM. The outcome in experiment [2] was Active.

On to `COc1cccc(S(=O)(=O)n2c3c(c4ccccc42)CCN(C(C)C)CC3)c1`, for which the Ki in experiment [1] is 85 nM. The outcome in experiment [2] was Active.

Take `O=S(=O)(c1ccc2c(Cl)cccc2c1)n1c2c(c3ccccc31)CCNCC2`: in experiment [1], the Ki came out at 24 nM. Moreover, the outcome in experiment [2] was Active.

Regarding `CCCN1CCc2c(n(S(=O)(=O)c3cccc(OC)c3)c3ccccc23)CC1`, the Ki in experiment [1] amounted to 124 nM. In addition, the outcome in experiment [2] was Active.

As for `COc1cccc(S(=O)(=O)n2c3c(c4ccccc42)CCN(CCc2ccccc2)CC3)c1`, in experiment [1], the affinity corresponds to a Ki of 504 nM. For the same molecule, the outcome in experiment [2] was Active.

With `CCN1CCc2c(n(S(=O)(=O)c3cccc(OC)c3)c3ccccc23)CC1`, the Ki in experiment [1] was 50 nM. Further, the outcome in experiment [2] was Active.

In experiment [1], `COc1cccc(S(=O)(=O)n2c3c(c4ccccc42)CCN(C2CCCCC2)CC3)c1` displayed a Ki of 253 nM. In addition, the outcome in experiment [2] was Active.

As to `COc1cccc(S(=O)(=O)n2c3c(c4ccccc42)CCNCC3)c1`, the affinity in experiment [1], expressed as Ki, was 12 nM. Moreover, in experiment [2], the outcome was Active.

In the case of `O=S(=O)(c1cccc(C(F)(F)F)c1)n1c2c(c3ccccc31)CCNCC2`, in experiment [1], the affinity corresponds to a Ki of 89 nM. Besides, the outcome in experiment [2] was Active.

For `COc1ccc(S(=O)(=O)n2c3c(c4ccccc42)CCNCC3)cc1`, the affinity in experiment [1] corresponds to a Ki of 33 nM. For the same molecule, the outcome in experiment [2] was Active.

Turning to `COc1ccccc1S(=O)(=O)n1c2c(c3ccccc31)CCNCC2`, the figures for the Ki in experiment [3] and in experiment [1] were 14 nM and 19 nM, respectively. For the same molecule, the IC50 – broadly, the concentration that gives 50% inhibition – in experiment [2] was determined as 162 nM.

On to `Cc1ccc(S(=O)(=O)n2c3c(c4ccccc42)CCNCC3)cc1`, for which the Ki in experiment [1] stood at 29 nM. Besides, in experiment [2], the outcome was Active.

Take `COc1cccc(S(=O)(=O)n2c3c(c4ccccc42)CCN(C2CCCC2)CC3)c1`: the affinity in experiment [1], expressed as Ki, was 324 nM. Besides, the outcome in experiment [2] was Active.

In experiment [1], `CCN1CCc2c(n(S(=O)(=O)c3ccccc3)c3ccccc23)CC1` had a Ki of 12 nM. For the same molecule, the outcome in experiment [2] was Active.
